From paper PMC10569036

How the values were obtained:
[1] = shake flask on a mixture of 185; loss from the water phase only; LC-Orbitrap peak areas; settings: room
[2] = shake flask on a mixture of 185; loss from the water phase only; LC-QTOF peak areas; settings: room

| Compound | log partition 1-octanol / HPLC water, unbuffered, traces of methanol / DMSO [1] [log10] | log partition butyl acetate / HPLC water, unbuffered, traces of methanol / DMSO [1] [log10] | log partition chloroform / HPLC water, unbuffered, traces of methanol / DMSO [1] [log10] | log partition cyclohexane / HPLC water, unbuffered, traces of methanol / DMSO [1] [log10] | log partition dichloromethane / HPLC water, unbuffered, traces of methanol / DMSO [1] [log10] | log partition n-hexane / HPLC water, unbuffered, traces of methanol / DMSO [1] [log10] | log partition n-octane / HPLC water, unbuffered, traces of methanol / DMSO [1] [log10] | log partition n-undecane / HPLC water, unbuffered, traces of methanol / DMSO [1] [log10] | log partition oleylalcohol / HPLC water, unbuffered, traces of methanol / DMSO [1] [log10] | log partition toluene / HPLC water, unbuffered, traces of methanol / DMSO [1] [log10] | log partition 1-octanol / HPLC water, unbuffered, traces of methanol / DMSO [2] [log10] | log partition butyl acetate / HPLC water, unbuffered, traces of methanol / DMSO [2] [log10] | log partition chloroform / HPLC water, unbuffered, traces of methanol / DMSO [2] [log10] | log partition cyclohexane / HPLC water, unbuffered, traces of methanol / DMSO [2] [log10] | log partition dichloromethane / HPLC water, unbuffered, traces of methanol / DMSO [2] [log10] | log partition n-hexane / HPLC water, unbuffered, traces of methanol / DMSO [2] [log10] | log partition n-octane / HPLC water, unbuffered, traces of methanol / DMSO [2] [log10] | log partition n-undecane / HPLC water, unbuffered, traces of methanol / DMSO [2] [log10] | log partition oleylalcohol / HPLC water, unbuffered, traces of methanol / DMSO [2] [log10] | log partition toluene / HPLC water, unbuffered, traces of methanol / DMSO [2] [log10] |
| --- | --- | --- | --- | --- | --- | --- | --- | --- | --- | --- | --- | --- | --- | --- | --- | --- | --- | --- | --- | --- |
| CO/N=C(/C1=NOCCO1)c1ccccc1Oc1ncnc(Oc2ccccc2Cl)c1F | 3.061 | 2.459 | 1.134 | 1.413 | 1.68 | 1.053 | 1.336 | 1.233 | 1.908 | 1.832 | 2.317 | 2.442 | 2.253 | 1.674 | 2.488 | 1.734 | 1.431 | 1.557 | 2.253 | 2.389 |
| c1ccc2[nH]c(-c3cscn3)nc2c1 | 1.814 | 2.093 | 1.499 | 0.0278 | 1.694 | -0.1668 | -0.1168 | -1.167 | 1.762 | 0.9569 | 0.8781 | 0.7498 | 0.5738 | -1.051 | 0.733 | -0.9485 | -1.018 | -1.324 | 0.7334 | 0.2898 |
